The molecules below were run against human NaV subtype (assay: E-VIPR optical membrane potential assay with electrical stimulation). Settings: active against one or more sodium channels; assay and NaV subtype not specified for Table 3; read-out: Binned Activity Data (IC50).
Chain of human NaV subtype (Q15858 whole entry): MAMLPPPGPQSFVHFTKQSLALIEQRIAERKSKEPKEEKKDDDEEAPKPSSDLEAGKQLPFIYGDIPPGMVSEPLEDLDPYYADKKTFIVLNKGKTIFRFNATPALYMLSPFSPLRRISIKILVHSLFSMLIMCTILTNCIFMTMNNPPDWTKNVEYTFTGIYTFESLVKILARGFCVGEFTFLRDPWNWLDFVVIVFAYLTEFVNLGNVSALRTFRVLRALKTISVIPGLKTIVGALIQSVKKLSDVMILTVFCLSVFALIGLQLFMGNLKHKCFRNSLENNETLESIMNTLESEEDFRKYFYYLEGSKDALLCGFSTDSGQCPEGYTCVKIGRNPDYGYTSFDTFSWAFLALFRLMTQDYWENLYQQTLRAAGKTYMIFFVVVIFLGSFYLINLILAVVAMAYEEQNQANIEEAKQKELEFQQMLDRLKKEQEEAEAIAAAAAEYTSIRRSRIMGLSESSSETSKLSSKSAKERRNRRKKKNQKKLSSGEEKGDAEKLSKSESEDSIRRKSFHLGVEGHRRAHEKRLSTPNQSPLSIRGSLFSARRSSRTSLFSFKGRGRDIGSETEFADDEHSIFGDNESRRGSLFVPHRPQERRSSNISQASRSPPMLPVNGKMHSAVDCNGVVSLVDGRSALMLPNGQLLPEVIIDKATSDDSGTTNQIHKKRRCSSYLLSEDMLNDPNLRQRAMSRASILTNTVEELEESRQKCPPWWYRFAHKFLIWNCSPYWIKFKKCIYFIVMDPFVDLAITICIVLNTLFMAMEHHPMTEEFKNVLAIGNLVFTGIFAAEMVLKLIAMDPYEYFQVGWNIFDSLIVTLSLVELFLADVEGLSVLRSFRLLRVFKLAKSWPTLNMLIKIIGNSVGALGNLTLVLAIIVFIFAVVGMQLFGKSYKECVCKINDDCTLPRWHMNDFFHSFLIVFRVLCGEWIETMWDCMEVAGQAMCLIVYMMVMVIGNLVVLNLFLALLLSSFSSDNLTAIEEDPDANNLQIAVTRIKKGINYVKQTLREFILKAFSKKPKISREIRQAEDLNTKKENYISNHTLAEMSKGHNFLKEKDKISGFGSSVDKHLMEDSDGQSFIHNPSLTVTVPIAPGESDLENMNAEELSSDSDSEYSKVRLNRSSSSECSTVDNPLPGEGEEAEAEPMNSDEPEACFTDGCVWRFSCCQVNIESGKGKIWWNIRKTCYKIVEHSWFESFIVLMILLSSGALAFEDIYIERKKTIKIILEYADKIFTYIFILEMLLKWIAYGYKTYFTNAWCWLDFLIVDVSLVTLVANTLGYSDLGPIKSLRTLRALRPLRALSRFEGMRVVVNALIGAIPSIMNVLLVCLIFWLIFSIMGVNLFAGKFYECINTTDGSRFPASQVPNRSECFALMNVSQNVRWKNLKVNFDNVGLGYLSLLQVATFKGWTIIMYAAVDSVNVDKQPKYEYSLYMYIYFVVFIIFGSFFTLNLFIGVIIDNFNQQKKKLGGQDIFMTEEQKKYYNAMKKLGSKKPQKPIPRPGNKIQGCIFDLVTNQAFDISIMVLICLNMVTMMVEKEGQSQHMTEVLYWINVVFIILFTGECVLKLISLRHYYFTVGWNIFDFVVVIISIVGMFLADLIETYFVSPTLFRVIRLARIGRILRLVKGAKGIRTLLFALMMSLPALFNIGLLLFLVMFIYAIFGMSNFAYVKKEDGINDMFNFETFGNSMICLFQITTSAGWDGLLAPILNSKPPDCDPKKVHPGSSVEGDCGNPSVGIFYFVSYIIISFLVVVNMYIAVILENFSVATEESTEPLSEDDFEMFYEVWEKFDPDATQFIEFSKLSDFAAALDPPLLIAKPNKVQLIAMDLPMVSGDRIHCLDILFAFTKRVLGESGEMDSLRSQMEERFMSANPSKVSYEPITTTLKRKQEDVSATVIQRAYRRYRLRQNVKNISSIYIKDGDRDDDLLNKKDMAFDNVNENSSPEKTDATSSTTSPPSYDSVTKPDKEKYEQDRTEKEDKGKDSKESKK
Type: cell-based
From the text: E-VIPR Optical Membrane Potential Assay Method with Electrical Stimulation
Sodium channels are voltage-dependent proteins that can be activated by inducing membrane voltage changes by applying electric fields. The electrical stimulation instrument and methods of use are described in Ion Channel Assay Methods PCT/US01/21652, herein incorporated by reference and are referred to as E-VIPR. The instrument comprises a microtiter plate handler, an optical system for exciting the coumarin dye while simultaneously recording the coumarin and oxonol emissions, a waveform generator, a current- or voltage-controlled amplifier, and a device for inserting electrodes in well. Under integrated computer control, this instrument passes user-programmed electrical stimulus protocols to cells within the wells of the microtiter plate.
24 hours before the assay on E-VIPR, HEK cells expressing human NaV subtype, like NaV 1.7, are seeded in 384-well poly-lysine coated plates at 15,000-20,000 cells per well. Other subtypes are performed in an analogous mode in a cell line expressing the NaV of interest. HEK cells are grown in media (exact composition is specific to each cell type and NaV subtype) supplemented with 10% FBS (Fetal Bovine Serum, qualified; GibcoBRL #16140-071) and 1% Pen-Strep (Penicillin-Streptomycin; GibcoBRL #15140-122). Cells are grown in vented cap flasks, in 90% humidity and 10% CO2, to 100% confluence. They are usually split by trypsinization 1:10 or 1:20, depending on scheduling needs, and grown for 2-3 days before the next split.
100 mg/mL Pluronic F-127 (Sigma #P2443), in dry DMSO
Compound Plates: 384-well round bottom plate, e.g. Corning 384-well Polypropylene Round Bottom #3656
Cell Plates: 384-well tissue culture treated plate, e.g. Greiner #781091-1B
Bath1 buffer. Glucose 10 mM (1.8 g/L), Magnesium Chloride (Anhydrous), 1 mM (0.095 g/L), Calcium Chloride, 2 mM (0.222 g/L), HEPES 10 mM (2.38 g/L), Potassium Chloride, 4.5 mM (0.335 g/L), Sodium Chloride 160 mM (9.35 g/L).
Hexyl Dye Solution: Bath1 Buffer+0.5% β-cyclodextrin (make this prior to use, Sigma #C4767), 8 μM CC2-DMPE+DiSBAC6(3). To make the solution Add volume of 10% Pluronic F127 stock equal to volumes of CC2-DMPE+DiSBAC6(3). The order of preparation is first mix Pluronic and CC2-DMPE, then add DiSBAC6(3) while vortexing, then add Bath1+β-Cyclodextrin.
1) Pre-spot compounds (in neat DMSO) into compound plates. Vehicle control (neat DMSO), the positive control (20 mM DMSO stock tetracaine, 125 μM final in assay) and test compounds are added to each well at 160× desired final concentration in neat DMSO. Final compound plate volume will be 80 μL (80-fold intermediate dilution from 1 μL DMSO spot; 160-fold final dilution after transfer to cell plate). Final DMSO concentration for all wells in assay is 0.625%.
2) Prepare Hexyl Dye Solution.
3) Prepare cell plates. On the day of the assay, medium is aspirated and cells are washed three times with 100 μL of Bathl Solution, maintaining 25 μL residual volume in each well.
4) Dispense 25 μL per well of Hexyl Dye Solution into cell plates. Incubate for 20-35 minutes at room temp or ambient conditions.
5) Dispense 80 μL per well of Bathl into compound plates. Acid Yellow-17 (1 mM) is added and Potassium Chloride can be altered from 4.5 to 20 mM depending on the NaV subtype and assay sensitivity.
6) Wash cell plates three times with 100 μL per well of Bathl, leaving 25 μL of residual volume. Then transfer 25 uL per well from Compound Plates to Cell Plates. Incubate for 20-35 minutes at room temp/ambient condition
7) Read Plate on E-VIPR. Use the current-controlled amplifier to deliver stimulation wave pulses for typically 9 seconds and a scan rate of 400 Hz. A pre-stimulus recording is performed for 0.5 seconds to obtain the un-stimulated intensities baseline. The stimulatory waveform is applied for 9 seconds followed by 0.5 seconds of post-stimulation recording to examine the relaxation to the resting state. […]
`COc1cc(C(=O)N2CCC3(CC2)Oc2cc(F)ccc2-n2cccc23)ccc1OC[C@H](O)CO` [Compound 606] was tested, and the IC50 was under 2 µM. With `Cc1cc(C(=O)N2CCC3(CC2)Oc2ccccc2-n2c(C#N)ccc23)ccc1[C@@](C)(O)CO` [Compound 54] the IC50 was under 2 µM. With `COc1cc(C(=O)N2CCC3(CC2)Oc2ccccc2-n2c(C#N)ccc23)ccc1OC[C@@H](O)CO` [Compound 680] the IC50 was under 2 µM. For `C[C@](O)(CO)c1ccc(C(=O)N2CCC3(CC2)Oc2ccccc2-n2c(C(F)(F)F)ccc23)cc1` [Compound 640], the IC50 was under 2 µM. Work on `COC(=O)C(C)(C)c1ccc(C(=O)N2CCC3(CC2)Oc2ccccc2-c2c3cnn2C)cc1OC` [Compound 403] yielded an IC50 of under 2 µM. With `N#Cc1ccc2n1-c1ccccc1OC21CCN(C(=O)c2ccc(C(F)(F)F)cc2)CC1` [Compound 481] the IC50 was over 5 µM.

— patent publication US20140171427A1, “Heterocyclic chromene-spirocyclic piperidine amides as modulators of ion channels” (VERTEX PHARMACEUTICALS INCORPORATED, priority 2010, published 2014)
